Data as given in patent US8017606B2, “Quinoline derivatives as antibacterial agents” (Janssen Pharmaceutica NV, priority 2005, dated 2011).
Converted amounts (≈) assume the structure as drawn. Structures can show the parent of a compound that is named as a salt.

Assays:
[1] = tested on: Bacillus subtilis (ATCC43639); assay: Microtitre plate assay, IC90 determination; format: cell-based; conditions: 90% inhibitory concentration for bacterial growth, 37° C., resazurin fluorescence, read-out: IC90 (μg/ml) BSU 43639
Experimental: (§1) The bacteria used in this study were grown overnight in flasks containing 100 ml Mueller-Hinton Broth (Becton Dickinson—cat. no. 275730) in sterile de-ionized water, with shaking, at 37° C. Stocks (0.5 ml/tube) were stored at −70° C. until use. Bacteria titrations were performed in microtiter plates and colony forming units (CFUs) were determined. In general, an inoculum level of approximately 100 CFUs was used for susceptibility testing.
(§2) Anti Bacterial Susceptibility Testing: IC90 Determination
(§3) Flat-bottom, sterile 96-well plastic microtiter plates were filled with 180 μl of sterile deionized water, supplemented with 0.25% BSA. Subsequently, stock solutions (7.8×final test concentration) of compounds were added in 45 μl volumes in column 2 Serial five-fold dilutions (45 μl in 180 μl) were made directly in the microtiter plates from column 2 to reach column 11. Untreated control samples with (column 1) and without (column 12) inoculum were included in each microtiter plate. Depending on the bacteria type, approximately 10 to 60 CFU per well of bacteria inoculum (100 TCID50), in a volume of 100 μl in 2.8× Mueller-Hinton broth medium, was added to the rows A to H, except column 12. The same volume of broth medium without inoculum was added to column 12 in row A to H. The cultures were incubated at 37° C. for 24 hours under a normal atmosphere (incubator with open air valve and continuous ventilation). At the end of incubation, one day after inoculation, the bacterial growth was quantitated fluorometrically. Therefore resazurin (0.6 mg/ml) was added in a volume of 20 μl to all wells […], and the plates were re-incubated overnight. A change in colour from blue to pink indicated the growth of bacteria.
(§4) The fluorescence was read in a computer-controlled fluorometer (Cytofluor Biosearch) at an excitation wavelength of 530 nm and an emission wavelength of 590 nm. The % growth inhibition achieved by the compounds was calculated according to standard methods. The IC90 (expressed in μg/ml) was defined as the 90% inhibitory concentration for bacterial growth.

[2] = tested on: Enterococcus faecalis (ATCC14506); assay: Microtitre plate assay, IC90 determination; format: cell-based; conditions: 90% inhibitory concentration for bacterial growth, 37° C., resazurin fluorescence, read-out: IC90 (μg/ml) EFA 14506
Experimental: as §1, §2, §3, §4

[3] = tested on: Listeria monocytogenes (ATCC49594); assay: Microtitre plate assay, IC90 determination; format: cell-based; conditions: 90% inhibitory concentration for bacterial growth, 37° C., resazurin fluorescence, read-out: IC90 (μg/ml) LMO 49594
Experimental: as §1, §2, §3, §4

[4] = tested on: Pseudomonas aeruginosa (ATCC27853); assay: Microtitre plate assay, IC90 determination; format: cell-based; conditions: 90% inhibitory concentration for bacterial growth, 37° C., resazurin fluorescence, read-out: IC90 (μg/ml) PAE 27853
Experimental: as §1, §2, §3, §4

[5] = tested on: Staphylococcus aureus (ATCC25923); assay: Microtitre plate assay, IC90 determination; format: cell-based; conditions: 90% inhibitory concentration for bacterial growth, 37° C., resazurin fluorescence, read-out: IC90 (μg/ml) STA 25923
Experimental: as §1, §2, §3, §4

[6] = tested on: Staphylococcus aureus (ATCC29213); assay: Microtitre plate assay, IC90 determination; format: cell-based; conditions: 90% inhibitory concentration for bacterial growth, 37° C., resazurin fluorescence, read-out: IC90 (μg/ml) STA 29213
Experimental: as §1, §2, §3, §4

[7] = tested on: Streptococcus mutans (ATCC33402); assay: Microtitre plate assay, IC90 determination; format: cell-based; conditions: 90% inhibitory concentration for bacterial growth, 37° C., resazurin fluorescence, read-out: IC90 (μg/ml) SMU 33402
Experimental: as §1, §2, §3, §4

[8] = tested on: Streptococcus pneumoniae (ATCC6305); assay: Microtitre plate assay, IC90 determination; format: cell-based; conditions: 90% inhibitory concentration for bacterial growth, 37° C., resazurin fluorescence, read-out: IC90 (μg/ml) SPN 6305
Experimental: as §1, §2, §3, §4

[9] = tested on: Streptococcus pyogens (ATCC8668); assay: Microtitre plate assay, IC90 determination; format: cell-based; conditions: 90% inhibitory concentration for bacterial growth, 37° C., resazurin fluorescence, read-out: IC90 (μg/ml) SPY 8668
Experimental: as §1, §2, §3, §4

[10] = tested on: methicilline resistant Staphylococcus aureus (MRSA) (a clinical isolate from the University of Antwerp); assay: Microtitre plate assay, IC90 determination; format: cell-based; conditions: 90% inhibitory concentration for bacterial growth, 37° C., resazurin fluorescence, read-out: IC90 (μg/ml) STA RMETHIC
Experimental: as §1, §2, §3, §4

[11] = tested on: Enterococcus faecalis (ATCC29212); assay: Microtitre plate assay, IC90 determination; format: cell-based; conditions: 90% inhibitory concentration for bacterial growth, 37° C., resazurin fluorescence, read-out: IC90 (μg/ml) EFA 29212
Experimental: as §1, §2, §3, §4

[12] = tested on: Staphylococcus aureus (ATCC43300); assay: Microtitre plate assay, IC90 determination; format: cell-based; conditions: 90% inhibitory concentration for bacterial growth, 37° C., resazurin fluorescence, read-out: IC90 (μg/ml) STA 43300
Experimental: as §1, §2, §3, §4

| melting point [°C] | IC90 [1] [µg/mL] | IC90 [2] [µg/mL] | IC90 [3] [µg/mL] | IC90 [4] [µg/mL] | IC90 [5] [µg/mL] | IC90 [6] [µg/mL] | IC90 [7] [µg/mL] | IC90 [8] [µg/mL] | IC90 [9] [µg/mL] | IC90 [11] [µg/mL] | IC90 [12] [µg/mL] | Structure (SMILES) | IC90 [10] [µg/mL] |
| --- | --- | --- | --- | --- | --- | --- | --- | --- | --- | --- | --- | --- | --- |
| 151 | – | – | – | – | – | – | – | – | – | – | – | CN(C)CCC(O)(c1cc(F)cc(F)c1)c1ccc2nc(-c3cccnc3)cc(-c3ccccc3)c2c1 (centres unmarked) (as salt: salt) [Compound 42] | – |
| 136 | – | – | – | – | – | – | – | – | – | – | – | CN(C)CCC(O)(c1cc(F)cc(F)c1)c1cccc2nc(N(C)C)c(-c3ccccc3)cc12 (centres unmarked) (as salt: salt) [Compound 45] | – |
| 156 | – | – | – | – | – | – | – | – | – | – | – | COc1nc2c(C(O)(CCN(C)C)c3cc(F)cc(F)c3)cc(-c3cccnc3)cc2cc1-c1ccccc1 (centres unmarked) (as salt: salt) [Compound 64] | – |
| 173 | 12.8 (≈ 25.2 µM) | – | 12.8 (≈ 25.2 µM) | 12.8 (≈ 25.2 µM) | 12.8 (≈ 25.2 µM) | 12.8 (≈ 25.2 µM) | – | 12.8 (≈ 25.2 µM) | 12.8 (≈ 25.2 µM) | 12.8 (≈ 25.2 µM) | – | CN(C)CCC(O)(Cc1c(-c2ccccc2)c(-c2ccccc2)nc2ccccc12)c1cc(F)cc(F)c1 (centres unmarked) [Compound 21] | 12.8 (≈ 25.2 µM) |
| 136 | – | – | 14.2 (≈ 25.2 µM) | 14.2 (≈ 25.2 µM) | 12.6 (≈ 22.4 µM) | 14.2 (≈ 25.2 µM) | 11.2 (≈ 19.9 µM) | 12.6 (≈ 22.4 µM) | 11.2 (≈ 19.9 µM) | 14.2 (≈ 25.2 µM) | – | CN(C)CCC(O)(c1cc(F)cc(F)c1)c1cc(Br)cc2cc(-c3ccccc3)c(-n3ccnc3)nc12 (centres unmarked) [Compound 22] | 14.2 (≈ 25.2 µM) |
| – | 8.3 (≈ 15.8 µM) | 10.5 (≈ 20 µM) | 13.2 (≈ 25.1 µM) | 13.2 (≈ 25.1 µM) | 6.6 (≈ 12.6 µM) | 8.3 (≈ 15.8 µM) | 2.1 (≈ 4 µM) | 10.5 (≈ 20 µM) | 2.1 (≈ 4 µM) | 13.2 (≈ 25.1 µM) | – | COc1nc2c(C(O)(CCN(C)C)c3cc(F)cc(F)c3)cc(-c3cccnc3)cc2cc1-c1ccccc1 (centres unmarked) [Compound 64] | 11.8 (≈ 22.5 µM) |
| 180 | 50.4 (≈ 100 µM) | – | 50.4 (≈ 100 µM) | 40 (≈ 79.4 µM) | 50.4 (≈ 100 µM) | 40 (≈ 79.4 µM) | 40 (≈ 79.4 µM) | 50.4 (≈ 100 µM) | 40 (≈ 79.4 µM) | 50.4 (≈ 100 µM) | – | COc1nc2c(C(O)(CCN(C)C)c3ccccc3)cc(-c3cccnc3)cc2cc1Cc1ccccc1 (centres unmarked) [Compound 66] | 50.4 (≈ 100 µM) |

More lines, now with the values behind:

| Structure (SMILES) | melting point [°C] | IC90 [1] [µg/mL] | IC90 [2] [µg/mL] | IC90 [3] [µg/mL] | IC90 [4] [µg/mL] | IC90 [5] [µg/mL] | IC90 [6] [µg/mL] | IC90 [7] [µg/mL] | IC90 [8] [µg/mL] | IC90 [9] [µg/mL] | IC90 [11] [µg/mL] | IC90 [12] [µg/mL] | IC90 [10] [µg/mL] |
| --- | --- | --- | --- | --- | --- | --- | --- | --- | --- | --- | --- | --- | --- |
| COc1nc2c(C(O)(CCN(C)C)c3ccccc3)cc(Br)cc2cc1Cc1ccccc1 (centres unmarked) [Compound 8] | 66 | 12.7 (≈ 25.1 µM) | 11.3 (≈ 22.4 µM) | 40.2 (≈ 79.5 µM) | 12.7 (≈ 25.1 µM) | 11.3 (≈ 22.4 µM) | 10.1 (≈ 20 µM) | 10.1 (≈ 20 µM) | 11.3 (≈ 22.4 µM) | 10.1 (≈ 20 µM) | – | – | 11.3 (≈ 22.4 µM) |
| COc1nc2c(C(O)(CCN(C)C)c3cccs3)cc(Br)cc2cc1Cc1ccccc1 (centres unmarked) [Compound 10] | – | – | – | 10.2 (≈ 19.9 µM) | 12.9 (≈ 25.2 µM) | 11.5 (≈ 22.5 µM) | 12.9 (≈ 25.2 µM) | 10.2 (≈ 19.9 µM) | 11.5 (≈ 22.5 µM) | 10.2 (≈ 19.9 µM) | 10.2 (≈ 19.9 µM) | 12.9 (≈ 25.2 µM) | 10.2 (≈ 19.9 µM) |
| CN(C)CCC(O)(c1ccccc1)c1cc(Br)cc2cc(Cc3ccccc3)c(OCCN3CCCCC3)nc12 (centres unmarked) [Compound 48] | 131 | 60.3 (≈ 100 µM) | – | 60.3 (≈ 100 µM) | 47.9 (≈ 79.5 µM) | 53.7 (≈ 89.1 µM) | 53.7 (≈ 89.1 µM) | 47.9 (≈ 79.5 µM) | 60.3 (≈ 100 µM) | 47.9 (≈ 79.5 µM) | 60.3 (≈ 100 µM) | – | 60.3 (≈ 100 µM) |
| CN(C)CCC(O)(c1cccc2ccccc12)c1cc(Br)cc2cc(-c3ccccc3)c(=O)[nH]c12 (centres unmarked) [Compound 69] | 190 | 52.8 (≈ 100 µM) | – | 41.9 (≈ 79.4 µM) | 13.3 (≈ 25.2 µM) | 52.8 (≈ 100 µM) | 13.3 (≈ 25.2 µM) | – | 13.3 (≈ 25.2 µM) | 13.3 (≈ 25.2 µM) | 13.3 (≈ 25.2 µM) | – | 52.8 (≈ 100 µM) |
| COc1nc2ccccc2c(CC(O)(CCN(C)C)c2cccc(F)c2)c1Cc1ccccc1 (centres unmarked) [Compound 71] | 123 | 11.5 (≈ 25.1 µM) | – | 9.2 (≈ 20.1 µM) | 11.5 (≈ 25.1 µM) | 11.5 (≈ 25.1 µM) | 11.5 (≈ 25.1 µM) | 9.2 (≈ 20.1 µM) | 11.5 (≈ 25.1 µM) | 9.2 (≈ 20.1 µM) | 11.5 (≈ 25.1 µM) | – | 11.5 (≈ 25.1 µM) |
